Where a name gives a salt, the structure may show the parent alone.
Tested on: Parkinson's disease patients
Assay: Clinical test of efficacy, safety and tolerability in patients with motor complications associated with Parkinson's disease
Type: in vivo, human
From the text: The efficacy of SUN N4057 on motor complications accompanying levodopa therapy in Parkinson's disease patients was studied in randomized, double-blind, placebo-controlled, multicenter, international, preliminary study. The patients aged 40 to 85 years, having idiopathic Parkinson's disease fulfilling the United Kingdom Parkinson's Disease Society (UK PDS) brain bank diagnostic criteria, having a presumed or confirmed diagnosis of Parkinson's disease in Stages 2 to 4 on the Hoehn & Yahr classification scale when in an “off” state, having a diagnosis of Parkinson's disease for at least 5 years, and being on a stable regimen of levodopa (L-dopa)/carbidopa for 30 days prior to the administration of the tested drug were enrolled into the study.
After providing their informed consent, the subjects were screened in 9 to 22 days before scheduled date of start of administration. During the screening phase, the patients continued to take their usual regimen of antiparkinsonian drugs including combinations of levodopa and carbidopa or combined use of single drugs.
At the baseline (8±2 days before scheduled date of start of administration), the subjects returned to the clinic for a baseline assessment of motor fluctuations over an 8-hour period. They received the first morning dose of the patient's usual anti-Parkinson's disease drugs (including combination of levodopa and carbidopa or combined use of single drugs), and the 8 hour evaluation began approximately 1 hour after taking the initial treatment. Each hour for 8 hours, the patient were assessed and it was recorded whether the patient was in the “on” (without dyskinesia), “on with dyskinesia,” or “off” motor states. The Unified Parkinson's Disease Rating Scale (UPDRS) Part III and the Abnormal Involuntary Movement Scale AIMS were also completed each hour over the 8-hour observation period.
The subjects judged eligible after the screening and baseline evaluation were randomly assigned in a 3:1 ratio (3 active:1 placebo) to receive SUN N4057 or matching placebo. The subjects received continuous intravenous infusion of SUN N4057 (target plasma concentration of 30 ng/mL) or a placebo for 12 hours a day for 2 consecutive days. The dose regimen was selected to reach the target plasma concentration 1 hour after the start of administration and to be maintained for 11 hours. The mean dosage of SUN N4057 for the patients was 13.123 mg on day 1 and 9.550 mg on day 2.
On day 1, motor assessments (recording of “on” or “off” periods), the Unified Parkinson's Disease Rating Scale (UPDRS) Part III, and the Abnormal Involuntary Movement Scale (AIMS) were conducted immediately prior to dosing with regular antiparkinsonian medications. After the first morning dose of the regular antiparkinsonian medication was administered, intravenous infusion of SUN N4057 or placebo was started. For 8 hours from the start of infusion, motor assessments, including the UPDRS Part III, AIMS, and recording of “on” and “off” periods were to be completed hourly.

[1] = After administration (day 2), i.v. infusion 12 hours a day, n = 18

## O=C1c2ccccc2OC=C(Cl)N1CCCCN1CC=C(c2ccccn2)CC1 [SUN N4057, 3-chloro-4,5-dihydro-4-{4-[4-(2-pyridyl)-1,2,3,6-tetrahydropyridin-1-yl]butyl}-1,4-benzoxazepin-5-one.dihydrochloride-dihydrate]
[1]
  Percentage of off time: 9.7%
  Percentage of on time with dyskinesia: 49.3%
  Percentage of on time without dyskinesia: 41.0%
Clinical study
  serious adverse events or deaths: no serious adverse events or deaths were reported
Day 2 (9.7-20.8)
  decrease of the percentage of off time in the comparison with baseline: 11.1 points
Day 2 (41.0-18.8)
  increase of the percentage of on time without dyskinesia in the comparison with baseline: 22.2 points
Day 2, placebo 0%, p=0.02
  percentage of responder (dyskinesia by AIMS improved in severity or suppressed to zero without prolongation of off time): 56%
Day 2 of administration, placebo 0.9
  UPDRS Part 3 decline in comparison with the baseline: 4.4 point
